In patent US10781211B2, “Spirocycle compounds and methods of making and using same” (Lundbeck La Jolla Research Center, Inc., priority 2016, dated 2020):

Key:
Assay type in all cases: in vivo
Conditions in all cases: 5 mg/kg oral gavage
FAAH = FAAH (Mus musculus (Mouse), UniProt O08914); experiment: Mouse brain proteomes from inhibitor treated mice (oral gavage, sacrifice 4 h after administration, ABPP analysis), FAAH
Method in brief: (§1)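 Values give % inhibition in brain after a 5 mg/kg oral gavage dose to wild-type C57Bl/6J mice, with vehicle e.g. PEG400/Ethanol/PBS (7/2/1). Animals were killed 4 h post-dose and brain proteome activity was read by ABPP.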

MAGL = MAGL (Mus musculus (Mouse), UniProt O35678); experiment: Mouse brain proteomes from inhibitor treated mice (oral gavage, sacrifice 4 h after administration, ABPP analysis)
Method: Preparation of Mouse Brain Proteomes from Inhibitor Treated Mice.
Inhibitors were administered to wild-type C57Bl/6J by oral gavage in a vehicle, e.g. PEG400/Ethanol/PBS (7/2/1). Each animal was sacrificed 4 h following administration and brain proteomes were prepared and analyzed according to previously established methods (See Niphakis, M. J., et al. (2011) ACS Chem. Neurosci. and Long, J. Z., et al. Nat. Chem. Biol. 5:37-44). Data from this assay is shown in Table 2 (% inhibition at 5 mg/kg).

ABHD6 = ABHD6 (Mus musculus (Mouse), UniProt Q8R2Y0); experiment: Mouse brain proteomes from inhibitor treated mice (oral gavage, sacrifice 4 h after administration, ABPP analysis), ABHD6
Method in brief: as §1

Sequence of ABHD6 (Q8R2Y0 whole entry): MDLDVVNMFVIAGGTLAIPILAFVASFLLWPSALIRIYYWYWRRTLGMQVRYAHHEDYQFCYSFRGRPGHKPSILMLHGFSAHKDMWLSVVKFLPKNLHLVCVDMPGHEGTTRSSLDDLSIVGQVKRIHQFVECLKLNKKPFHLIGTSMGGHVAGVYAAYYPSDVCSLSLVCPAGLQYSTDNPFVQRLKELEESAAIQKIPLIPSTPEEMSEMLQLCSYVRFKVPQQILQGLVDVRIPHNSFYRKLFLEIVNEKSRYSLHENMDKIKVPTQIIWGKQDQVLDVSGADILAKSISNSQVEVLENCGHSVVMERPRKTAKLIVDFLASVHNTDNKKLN
Sequence of FAAH (O08914 whole entry): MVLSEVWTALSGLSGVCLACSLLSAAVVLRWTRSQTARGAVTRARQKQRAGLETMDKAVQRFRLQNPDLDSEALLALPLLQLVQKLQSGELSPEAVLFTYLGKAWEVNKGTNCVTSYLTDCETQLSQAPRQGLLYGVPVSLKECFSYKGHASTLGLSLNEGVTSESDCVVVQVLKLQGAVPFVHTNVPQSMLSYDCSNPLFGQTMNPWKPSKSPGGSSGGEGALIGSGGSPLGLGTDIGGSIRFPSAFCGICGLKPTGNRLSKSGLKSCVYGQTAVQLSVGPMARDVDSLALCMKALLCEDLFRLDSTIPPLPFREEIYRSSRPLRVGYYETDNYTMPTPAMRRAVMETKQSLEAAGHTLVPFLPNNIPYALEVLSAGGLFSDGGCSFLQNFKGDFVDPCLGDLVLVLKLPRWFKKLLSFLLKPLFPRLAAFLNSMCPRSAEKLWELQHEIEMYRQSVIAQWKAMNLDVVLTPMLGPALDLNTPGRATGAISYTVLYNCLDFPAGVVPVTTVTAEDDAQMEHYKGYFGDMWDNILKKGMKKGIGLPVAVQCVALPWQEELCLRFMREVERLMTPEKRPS
Sequence of MAGL (O35678 whole entry): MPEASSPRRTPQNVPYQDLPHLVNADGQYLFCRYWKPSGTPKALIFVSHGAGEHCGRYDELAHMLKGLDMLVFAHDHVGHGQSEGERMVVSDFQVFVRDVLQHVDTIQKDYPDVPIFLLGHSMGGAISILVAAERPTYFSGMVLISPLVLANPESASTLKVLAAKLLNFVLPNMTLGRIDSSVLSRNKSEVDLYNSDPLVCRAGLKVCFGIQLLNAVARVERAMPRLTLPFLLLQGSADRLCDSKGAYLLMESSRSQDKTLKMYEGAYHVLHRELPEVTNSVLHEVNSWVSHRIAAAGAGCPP

| Structure (SMILES) | FAAH % Inh 5 mg/kg (mouse) (FAAH) | MAGL % Inh 5 mg/kg (mouse) (MAGL) | ABHD6 % Inh 5 mg/kg (mouse) (ABHD6) |
| --- | --- | --- | --- |
| CCc1cc(CN2CCC3(CCN(C(=O)OC(C(F)(F)F)C(F)(F)F)CC3)C2)ccc1F [Example 152, 1,1,1,3,3,3-Hexafluoropropan-2-yl 2-(3-ethyl-4-fluorobenzyl)-2,8-diazaspiro[4.5]decane-8-carboxylate] | # (# is < 25%) | ### (### is ≥ 75%) | ### (### is ≥ 75%) |
| O=C(OC(C(F)(F)F)C(F)(F)F)N1CCC2(CCN(Cc3ccc(C(F)(F)F)cc3N3CCOCC3)C2)CC1 [Example 22, 1,1,1,3,3,3-Hexafluoropropan-2-yl 2-(2-morpholino-4-(trifluoromethyl)benzyl)-2,8-diazaspiro[4.5]decane-8-carboxylate] | # (# is < 25%) | ### (### is ≥ 75%) | # (# is < 25%) |
| O=C(O)C1CCN(Cc2cc(Cl)cc(CN3CCCC34CCN(C(=O)OC(C(F)(F)F)C(F)(F)F)CC4)c2)C1 (stereo not drawn) [Example 272] | # (# is < 25%) | ### (### is ≥ 75%) | # (# is < 25%) |
| CS(=O)(=O)C1CCN(c2cc(C(F)(F)F)ccc2CN2CCCC23CCN(C(=O)OC(C(F)(F)F)C(F)(F)F)CC3)CC1 [Example 267] | # (# is < 25%) | # (# is < 25%) | # (# is < 25%) |
| O=C(OC(C(F)(F)F)C(F)(F)F)N1CCC2(CCCN2Cc2cc(N3CCS(=O)(=O)CC3)cc(C(F)(F)F)c2)CC1 [Example 42, 1,1,1,3,3,3-Hexafluoropropan-2-yl 1-(3-(1,1-dioxidothiomorpholino)-5-(trifluoromethyl)benzyl)-1,8-diazaspiro[4.5]decane-8-carboxylate] | # (# is < 25%) | ### (### is ≥ 75%) | # (# is < 25%) |
| CC(=O)NC1CCN(c2cc(C(F)(F)F)ccc2CN2CCCC23CCN(C(=O)OC(C(F)(F)F)C(F)(F)F)CC3)CC1 [Example 93, 1,1,1,3,3,3-Hexafluoropropan-2-yl 1-(2-(4-acetamidopiperidin-1-yl)-4-(trifluoromethyl)benzyl)-1,8-diazaspiro[4.5]decane-8-carboxylate] | # (# is < 25%) | ### (### is ≥ 75%) | # (# is < 25%) |
| O=C(OC(C(F)(F)F)C(F)(F)F)N1CCC2(CCCN2Cc2ccc(C(F)(F)F)cc2N2CCC(F)CC2)CC1 [Example 91, 1,1,1,3,3,3-Hexafluoropropan-2-yl 1-(2-(4-fluoropiperidin-1-yl)-4-(trifluoromethyl)benzyl)-1,8-diazaspiro[4.5]decane-8-carboxylate] | # (# is < 25%) | ### (### is ≥ 75%) | # (# is < 25%) |
| Cc1c(CN2CCCC23CCN(C(=O)OC(C(F)(F)F)C(F)(F)F)CC3)cccc1N1CC2CCC(C1)O2 [Example 86, 1,1,1,3,3,3-Hexafluoropropan-2-yl 1-(3-(8-oxa-3-azabicyclo[3.2.1]octan-3-yl)-2-methylbenzyl)-1,8-diazaspiro[4.5]decane-8-carboxylate] | # (# is < 25%) | ### (### is ≥ 75%) | # (# is < 25%) |
| CC(=O)N1CCN(c2cc(Cl)ccc2CN2CCCC23CCN(C(=O)OC(C(F)(F)F)C(F)(F)F)CC3)CC1 [Example 99, 1,1,1,3,3,3-Hexafluoropropan-2-yl 1-(2-(4-acetylpiperazin-1-yl)-4-chlorobenzyl)-1,8-diazaspiro[4.5]decane-8-carboxylate] | # (# is < 25%) | ### (### is ≥ 75%) | # (# is < 25%) |
| Cc1c(CN2CCCC23CCN(C(=O)OC(C(F)(F)F)C(F)(F)F)CC3)cccc1N1CCCCC1 [Example 84, 1,1,1,3,3,3-Hexafluoropropan-2-yl 1-(2-methyl-3-(piperidin-1-yl)benzyl)-1,8-diazaspiro[4.5]decane-8-carboxylate] | # (# is < 25%) | ### (### is ≥ 75%) | # (# is < 25%) |
| O=C(O)C1CCN(c2cc(C(F)(F)F)ccc2CN2CCC3(CCN(C(=O)OC(C(F)(F)F)C(F)(F)F)CC3)C2)CC1 [Example 119, 1-(2-((8-(((1,1,1,3,3,3-Hexafluoropropan-2-yl)oxy)carbonyl)-2,8-diazaspiro[4.5]decan-2-yl)methyl)-5-(trifluoromethyl)phenyl)piperidine-4-carboxylic acid] | # (# is < 25%) | ### (### is ≥ 75%) | ### (### is ≥ 75%) |
| O=C(OC(C(F)(F)F)C(F)(F)F)N1CCC2(CCCN2Cc2ccc(Cl)cc2N2CCC(F)(F)CC2)CC1 [Example 101, 1,1,1,3,3,3-Hexafluoropropan-2-yl 1-(4-chloro-2-(4,4-difluoropiperidin-1-yl)benzyl)-1,8-diazaspiro[4.5]decane-8-carboxylate] | # (# is < 25%) | ### (### is ≥ 75%) | # (# is < 25%) |
| O=C(OC(C(F)(F)F)C(F)(F)F)N1CCC2(CCCN2Cc2cccc(N3CCCC3)c2Cl)CC1 [Example 81, 1,1,1,3,3,3-Hexafluoropropan-2-yl 1-(2-chloro-3-(pyrrolidin-1-yl)benzyl)-1,8-diazaspiro[4.5]decane-8-carboxylate] | # (# is < 25%) | ### (### is ≥ 75%) | # (# is < 25%) |
| O=C(O)C1CCN(C(=O)c2cc(C(F)(F)F)ccc2CN2CCCC23CCN(C(=O)OC(C(F)(F)F)C(F)(F)F)CC3)CC1 [Example 281] | # (# is < 25%) | # (# is < 25%) | # (# is < 25%) |
| CC1(C(=O)O)CN(c2cc(C(F)(F)F)ccc2CN2CCC3(CCN(C(=O)OC(C(F)(F)F)C(F)(F)F)CC3)C2)CCO1 (stereo not drawn) [Example 256] | # (# is < 25%) | # (# is < 25%) | # (# is < 25%) |
| CN1CCC(Oc2cc(CN3CCCC34CCN(C(=O)OC(C(F)(F)F)C(F)(F)F)CC4)cc(C(F)(F)F)c2)CC1 [Example 166, 1,1,1,3,3,3-Hexafluoropropan-2-yl 1-(3-(1-methylpiperidin-4-yloxy)-5-(trifluoromethyl)benzyl)-1,8-diazaspiro[4.5]decane-8-carboxylate] | # (# is < 25%) | # (# is < 25%) | # (# is < 25%) |
| O=C(OC(C(F)(F)F)C(F)(F)F)N1CCC2(CCCN2Cc2ccc(Cl)cc2N2CCC(F)CC2)CC1 [Example 102, 1,1,1,3,3,3-Hexafluoropropan-2-yl 1-(4-chloro-2-(4-fluoropiperidin-1-yl)benzyl)-1,8-diazaspiro[4.5]decane-8-carboxylate] | # (# is < 25%) | ### (### is ≥ 75%) | # (# is < 25%) |
| CC1(C(=O)O)CCCN(c2cc(CN3CCCC34CCN(C(=O)OC(C(F)(F)F)C(F)(F)F)CC4)cc(C(F)(F)F)c2)C1 (stereo not drawn) [Example 221] | # (# is < 25%) | ### (### is ≥ 75%) | # (# is < 25%) |
| O=C(OC(C(F)(F)F)C(F)(F)F)N1CCC2(CCCN2Cc2ccc(Cl)cc2N2CC3CCC(C2)O3)CC1 [Example 75, 1,1,1,3,3,3-Hexafluoropropan-2-yl 1-(2-(8-oxa-3-azabicyclo[3.2.1]octan-3-yl)-4-chlorobenzyl)-1,8-diazaspiro[4.5]decane-8-carboxylate] | # (# is < 25%) | ### (### is ≥ 75%) | # (# is < 25%) |
| CCc1cc(CN2CCCC23CCN(C(=O)OC(C(F)(F)F)C(F)(F)F)CC3)ccc1F [Example 150, 1,1,1,3,3,3-Hexafluoropropan-2-yl 1-(3-ethyl-4-fluorobenzyl)-1,8-diazaspiro[4.5]decane-8-carboxylate] | # (# is < 25%) | ### (### is ≥ 75%) | # (# is < 25%) |
| O=C(OC(C(F)(F)F)C(F)(F)F)N1CCC2(CCCN2Cc2ccc(C(F)(F)F)cc2N2CCC2)CC1 [Example 96, 1,1,1,3,3,3-Hexafluoropropan-2-yl 1-(2-(azetidin-1-yl)-4-(trifluoromethyl)benzyl)-1,8-diazaspiro[4.5]decane-8-carboxylate] | # (# is < 25%) | ### (### is ≥ 75%) | # (# is < 25%) |
| Cc1cc(CN2CCCC23CCN(C(=O)OC(C(F)(F)F)C(F)(F)F)CC3)ccc1Cl [Example 124, 1,1,1,3,3,3-Hexafluoropropan-2-yl 1-(4-chloro-3-methylbenzyl)-1,8-diazaspiro[4.5]decane-8-carboxylate] | # (# is < 25%) | ### (### is ≥ 75%) | # (# is < 25%) |
| O=C(OC(C(F)(F)F)C(F)(F)F)N1CCC2(CCCN2Cc2ccc(N3CCCC3)c(C(F)(F)F)c2)CC1 [Example 130, 1,1,1,3,3,3-Hexafluoropropan-2-yl 1-(4-(pyrrolidin-1-yl)-3-(trifluoromethyl)benzyl)-1,8-diazaspiro[4.5]decane-8-carboxylate] | # (# is < 25%) | ### (### is ≥ 75%) | # (# is < 25%) |
